Test results: US11096903B2, “Use of pinocarveol” (INDUSTRY-ACADEMIC COOPERATION FOUNDATION, YONSEI UNIVERSITY, priority 2015, dated 2021)
Several values for one entry are separate records, joined by “and”; a condition that tells them apart may be missing. Identical values can stand only once.

Tests used:
[1] = system: Dietary Obese Mice; assay: Plasma lipid concentration (commercial measurement kit); assay type: in vivo; conditions: 10 weeks
Description: (§1) As a control drug, metformin (Met) or sibutramine (Sibu) which is an anti-obesity drug was added at a concentration of about 0.01% to HFD and used (Table 1). For a normal diet (chow) group, a commercially available rodent chow was fed. Pinocarveol, metformin, and sibutramine were all purchased from Sigma-Aldrich Company (U.S.).
(§2) 5-week-old male C57BL/6J mice (Orient, Korea) were adjusted to a laboratory condition with solid feed for one week and randomly assigned to a high fat diet control group and experimental groups according to the randomized block method, followed by raising for ten weeks. Diet was supplied with water between 10 and 11 a.m. every day, intake amounts of diet was measured every day, and weight was measured every week. In order to prevent sudden weight changes due to feed intake, feed containers were removed, and weight was measured after 2 hours. Experimental animals were fasted for 12 hours or longer and anaesthetized by diethyl ether, and blood, liver, adipose tissues of internal organs (epididymal fat, fat around the kidney, mesenteric fat, and retroperitoneal fat) were collected, washed with 0.1M phosphate buffer solution (pH 7.4), and measured for weight. Blood collected from abdominal aorta was centrifuged at 1,000×g for 15 minutes to separate blood plasma.
In order to evaluate the concentrations of plasma cholesterol, neutral fat, and free fatty acids of experimental animals raised for ten weeks, a commercially available measurement kit (Bio Clinical System, Korea) was used to perform measurement by repeating 2 measurements, respectively.

[2] = system: genes related to lipogenesis; assay: RT-PCR gene expression in hepatic tissues; assay type: in vivo, mice; conditions: PD vs HFD
Description: (§3) 1 mL of TRIzol solution was added per 0.1 g of adipose tissues of internal organs and hepatic tissues, and tissues were crushed and centrifuged at 4° C. and 12,000×g for 10 minutes. The supernatant was placed in a new tube, and 200 μL of chloroform was added followed by stirring. After repeating this procedure twice, the supernatant was placed in a new tube, and isopropanol and the supernatant were added at a ratio of 1:1. After strongly shaking for 10 times, the mixture was placed at room temperature for 10 minutes, centrifuged at 4° C. and 12,000×g for 10 minutes to remove the supernatant, and 1 mL of 70% ethanol was added to the precipitate to be centrifuged at 4° C. and 7,500×g for 5 minutes. After removing ethanol, the tube containing RNA precipitate was dried at room temperature for 5 minutes, and RNA pellet was dissolved using nuclease free water. By a using UV/VIS spectrophotometer (Beckman coulter, DU730, U.S.), the concentrations of RNA samples extracted at wavelengths of 260 nm and 280 nm were measured, and by carrying out agarose gel electrophoresis, the integrity of RNA samples was determined.
(§4) For RNA samples extracted from adipose tissues of internal organs and hepatic tissues, oligo dT primers and superscript reverse transcriptase (GIBCO BRL, U.S.) were used to carry out reverse transcription to synthesize cDNA. By using the cDNA obtained by reverse transcription as a […] and using a 5′ and 3′ flanking sequence of the cDNA of the gene to be amplified as a primer, PCR was carried out, and at this time, the sequences of the used primers are shown in Table 2. 1 μL of the amplified PCR product was subject to electrophoresis on a 1% agarose gel to check for DNA bands.

[3] = system: Dietary Obese Mice; assay: Visceral fat weight in high fat diet-fed mice; assay type: in vivo; conditions: 10 weeks
Description: as §1, §2
After feeding the experimental diets for 10 weeks, each of epididymal fat, fat around the kidney, mesenteric fat, and retroperitoneal fat, which compose visceral fat, was extracted to measure the weight thereof.

[4] = cited from earlier work
[5] = system: Dietary Obese Mice; assay: Body weight gain, diet intake and food efficiency ratio in high fat diet-fed mice; assay type: in vivo; conditions: 10 weeks
Description: as §1, §2

[6] = system: genes related to thermogenesis and adipogenesis; assay: RT-PCR gene expression in adipose tissues of internal organs; assay type: in vivo, mice; conditions: PD vs HFD
Description: as §3, §4

[7] = system: IL-6, TNFα, MCP1, and leptin; assay: Inflammatory cytokine concentration in blood (ELISA); assay type: in vivo, mice; conditions: PD vs HFD group, 10 weeks
Description: as §1
The concentrations of plasma IL-6, TNFα, MCP1, and leptin were measured by the ELISA method using the Milliplex map kit (Millipore Corporation, U.S.).

[8] = system: Dietary Obese Mice; assay: Liver weight and lipid concentration of hepatic tissue (Folch extraction); assay type: in vivo; conditions: PD vs HFD group, 10 weeks
Description: as §1, §2
Lipid components of hepatic tissues were collected as follows according to the method by Folch, et al. (Folch J, Lees M, Sloane Stanley G H. A simple method for the isolation and purification of total lipids from animal tissues. J Bio Chem. 1957; 226: 497-509). 1 mL of distilled water was applied to a hepatic tissue (0.25 g) and homogenized by using a Polytron homogenizer (IKA-WERKE GmbH & Co., Ultra-Turrax, Staufen, Germany). 5 mL of a chloroform:methanol solution (2:1, v/v) was added to the homogeneous solution, mixed well and centrifuged at 1,000×g for 10 minutes to separate a lower phase. 2 mL of a chloroform:methanol solution (2:1, v/v) was added to an upper phase again, and after repeating the same procedure, lipid components of the liver were completely separated. 3 mL of a chloroform:methanol:0.05% CaCl2) (3:48:47, v/v/v) solution was added to the lower phase thus obtained, mixed for 1 minute, and centrifuged at 1,000×g for 10 minutes. After obtaining the final lower phase and completely drying with nitrogen gas, the dried lipids were dissolved in 1 mL of methanol to use for lipid component analysis.
The concentrations of neutral fat, cholesterol, and free fatty acids of the lipid extracts of hepatic tissues were measured by using the same commercially available measurement kit (Bio Clinical System, Korea) as previously used for the analysis of plasma lipid concentration.

[9] = system: AMPK; assay: Western blot of p-AMPK/AMPK in hepatic tissues; assay type: in vivo, mice; conditions: PD vs HFD
Description: (§5) A predetermined amount of visceral fat or hepatic tissues was homogenized with liquid nitrogen and a lysis buffer solution in a mortar and centrifuged at 13,000×g and 4° C. for 20 minutes, and the middle layer was obtained to quantify proteins according to the Bradford method. 50 μg of the protein was subject to electrophoresis on an SDS polyacrylamide gel, was subject to electroblotting on a PVDF hyper film, and was reacted with the corresponding antibody, β-catenin, phospho-AMPK (AMP-activated protein kinase), AMPK, GAPDH (Cell-Signaling Technology, U.S.), respectively. The signal of each protein was visualized by a chemiluminescent detection system (Amersham, U.K.), and the thickness of bands was quantified by using the Quantity One Analysis Software (Bio-Rad Laboratories, U.S.).

[10] = system: Dietary Obese Mice; assay: Oral glucose tolerance test; assay type: in vivo; conditions: PD vs HFD group, at 8 weeks, d-glucose 2 g/kg oral
Description: An obesity inducing diet used in the present invention included a high fat control diet (HFD: 40% fat calorie, 17 g lard, and 3% corn oil/100 g diet), and a pinocarveol-supplemented high fat diet (PD) supplemented with pinocarveol (80,613, Sigma-Aldrich Company, CAS Number: 547-61-5, (1S,3R,5S)-6,6-dimethyl-2-methylenebicyclo[3,1,1]heptan-3-ol) has the same composition as HFD, but about 0.2% of pinocarveol was added. As a control drug, metformin (Met) or sibutramine (Sibu) which is an anti-obesity drug was added at a concentration of about 0.01% to HFD and used (Table 1). For a normal diet (chow) group, a commercially available rodent chow was fed. Pinocarveol, metformin, and sibutramine were all purchased from Sigma-Aldrich Company (U.S.).
At 8 weeks of experimental raising, experimental animals were fasted for 16 hours and orally administered with d-glucose corresponding to 2 g/kg body weight, and blood was collected from the tail vein of mice at time points of 15 minutes, 30 minutes, 60 minutes, and 120 minutes. The glucose concentration of collected blood was measured by using a script-operation blood glucose sensor (ONETOUCH Ultra, Inverness Medical Ltd., U.K.).

[11] = system: Dietary Obese Mice; assay: Fasting blood glucose and insulin concentration; assay type: in vivo; conditions: PD vs HFD group, 10 weeks
Description: as §1
Meanwhile, the glucose concentration of the blood plasma obtained during fasting which was collected from mice raised for 10 weeks was measured by using a biochemical automatic analyzer (Express Plus, Chiron Diagnostics Co., U.S.), and kit reagents for analysis were purchased from Bio-Clinical System (Korea).
The insulin concentration of blood plasma obtained during fasting was measured by using a mouse insulin ELISA kit (Millipore Corporation, U.S.).

[12] = system: β-catenin; assay: Western blot of β-catenin in adipose tissues of internal organs; assay type: in vivo, mice; conditions: PD vs HFD
Description: as §5

[13] = system: Dietary Obese Mice; assay: Liver function indexes (ALT, AST activity) in blood plasma; assay type: in vivo; conditions: PD vs HFD group, 10 weeks
Description: as §1, §2

**Q.** Which results are given for `C=C1[C@H](O)C[C@@H]2C[C@H]1C2(C)C` [pinocarveol, (1S,3R,5S)-6,6-dimethyl-2-methylenebicyclo[3,1,1]heptan-3-ol]?
**A.** decrease in plasma free fatty acid concentration ([1]; PD vs HFD group): 39%; decrease in plasma neutral fat concentration ([1]; PD vs HFD group): 27%; decrease in plasma total cholesterol concentration ([1]; PD vs HFD group): 16%; HDL-cholesterol concentration in blood ([1]; between the experimental groups): did not show any significant difference; ACC gene expression [2]: significantly decreased; FAS gene expression [2]: significantly decreased; LPL gene expression [2]: significantly decreased; LXRα gene expression [2]: significantly decreased; SREBP gene expression [2]: significantly decreased; ACC gene expression ([2]; listed as PD): significantly decreased again; FAS gene expression ([2]; listed as PD): significantly decreased again; LPL gene expression ([2]; listed as PD): significantly decreased again; LXRα gene expression ([2]; listed as PD): significantly decreased again; SREBP gene expression ([2]; listed as PD): significantly decreased again; decrease in total visceral fat weight ([3]; PD vs HFD group): 32%; weights of epididymal fat, fat around the kidney, mesenteric fat, and retroperitoneal fat ([3]; PD vs HFD group): significantly reduced; effect of reducing body weight and visceral fat amount compared with control drugs ([3]; vs sibutramine and metformin diets): as much excellent effect of reducing body weight and visceral fat amount as commercially available anti-obesity drugs (sibutramine) and diabetes treatment drugs (metformin); solubility in oil and ethanol ([4]; oil and ethanol): dissolve in oil and ethanol; solubility in water ([4]; water): does not dissolve; decrease in cumulative body weight gain ([5]; PD (about 0.2% pinocarveol in HFD) vs HFD group): 32%; decrease in food efficiency ratio (cumulative body weight gain / total diet intake) ([5]; PD vs HFD group): 32%; C/EBPα gene expression [6]: significantly decreased; CD36 gene expression [6]: significantly decreased; FAS gene expression [6]: significantly decreased; PGC-1α gene expression [6]: significantly increased; PPARγ2 gene expression [6]: significantly decreased; UCP1 gene expression [6]: significantly increased; UCP3 gene expression [6]: significantly increased; leptin gene expression [6]: significantly decreased; C/EBPα gene expression ([6]; listed as PD): significantly decreased again; CD36 gene expression ([6]; listed as PD): significantly decreased again; FAS gene expression ([6]; listed as PD): significantly decreased again; PGC-1α gene expression ([6]; listed as PD): significantly increased again; PPARγ2 gene expression ([6]; listed as PD): significantly decreased again; UCP1 gene expression ([6]; listed as PD): significantly increased again; UCP3 gene expression ([6]; listed as PD): significantly increased again; leptin gene expression ([6]; listed as PD): significantly decreased again; decrease in plasma IL-6 concentration [7]: 70%; decrease in plasma MCP1 concentration [7]: 35%; decrease in plasma TNFα concentration [7]: 28%; decrease in plasma leptin concentration [7]: 40%; decrease in absolute liver weight [8]: 30%; decrease in free fatty acid concentration of hepatic tissue [8]: 65%; decrease in neutral fat concentration of hepatic tissue [8]: 33%; decrease in total cholesterol concentration of hepatic tissue [8]: 31%; activation (p-AMPK/AMPK ratio) of AMPK [9]: significant increase; activation (p-AMPK/AMPK ratio) of AMPK ([9]; listed as PD): significantly increased; blood glucose concentrations over time after sugar intake (OGTT) [10]: decrease; reduction of area under the curve (AUC) of the glucose concentration (OGTT) [10]: 20%; decrease in fasting blood glucose concentration [11]: 21%; decrease in fasting blood insulin concentration [11]: 50%; protein expression amount of β-catenin [12]: significant increase; protein expression amount of β-catenin ([12]; listed as PD): significantly increased; decrease in alanine aminotransferase (ALT) activity in blood plasma [13]: 44% and 52%; decrease in aspartate aminotransferase (AST) activity in blood plasma [13]: 32% and 34%
